According to patent US20090209460A1, “COMPOSITIONS AND METHODS FOR TREATING OBESITY AND RELATED METABOLIC DISORDERS” (Amylin Pharmaceuticals, Inc., priority 2005, published 2009):
Where two headings read alike, the source gives them in different places. Residues, ends and D or L forms follow the SMILES beside them.

Experiments:
NIH/Swiss mice = assay: acute food intake assay, lean overnight-fasted NIH/Swiss mice, intraperitoneal injection; assay type: in vivo, mouse; conditions: for Food Intake Inhibition: mouse assay, dose of 200 mg/kg, measured at 60 minutes; for FI (60′, 200): food intake, % change relative to control, 60 min
Description: The effect of NMX Peptides, FNX Peptides or NMX Receptor agonists on food intake when systemically administered was investigated using an acute food intake assay. This assay measured food consumption in lean subjects. Lean, group-housed, overnight-fasted NIH/Swiss mice. All in vivo tests were performed with peripheral injections of peptide. […] The dose-response data are presented herein. The protocol is described below. Female NIH/Swiss mice (8-24 weeks old) were group housed with a 12:12 hour light:dark cycle, with lights on at 0300. Water and a standard pelleted mouse chow diet are available ad libitum, except as noted. Animals are fasted starting at approximately 1530 hrs, 1 day prior to experiment. At time=0 min, all animals are given an intraperitoneal injection of vehicle or polypeptide in a volume of 200 uL/mouse and immediately given a pre-weighed amount (10-15 g) of the standard chow. Food is removed and weighed at 30, 60, and 120 minutes to determine the amount of food consumed. The effects of treatment on food intake are expressed as % change relative to control.

[1] = brush border membrane (BBM) stability assay; assay type: in vitro ADME, human; conditions: brush border membrane extract (e.g. kidney)
Description: Some exemplary NMX Peptides and FNX Peptides were tested for stability in a brush border membrane (BBM) assay as described herein. To determine the enzymatic stability of peptide hormones peptides are incubated with a preparation of human brush border membranes extract (e.g., kidney), and the stability of the peptide is determined by measuring concentration of the intact peptide at specific intervals. The brush border membrane extract contains dipeptidyl peptidase IV (DPP-IV), neutral endopeptidases, peptidyl-dipeptidase A, carboxypeptidases and aminopeptidases. These are the primary enzymes that degrade peptides in vivo and are found in the kidneys, liver, lungs and pancreas. Resistance against these human proteases would increase peptide half-life. In the BBM assay test peptide was subjected to digestion over a period of five (5) hours with human brush border membrane extracts, e.g. kidney, at 37° C. At desired timepoints digestion was stopped by addition of quench solution, typically 50% ACN, 1% FA. After centrifugation to remove membrane debris, supernatant was subjected to mass spectrometry using a selected ion scan for the intact molecule of interest. Values are expressed as a percent of stable. A value of at least 80 or greater is regarded as an extremely stable molecule. A value of at least 70 or greater is a molecule with significant stability.

[2] = percent compound remaining after a 5 hour incubation, human brush border membrane assay, read-out: hBBM

Row | SMILES | remaining at 5 h [1, 2] [%] | Food Intake Inhibition (NIH/Swiss mice) [%] | FI (60′, 200) (NIH/Swiss mice) [%] | remaining at 5 h ([1]; percent of stable, human brush border membrane extracts, five hours, 37° C., read-out: BBM) [%] | activity in food intake assays (NIH/Swiss mice; doses up to 170 nmol/kg)
1 | CC(C)C[C@H](NC(=O)[C@H](CCCCN)NC(=O)[C@H](Cc1ccc(O)cc1)NC(=O)[C@H](Cc1c[nH]cn1)NC(=O)[C@H](Cc1ccccc1)NC(=O)[C@H](CC(C)C)NC(=O)[C@@H](N)Cc1ccccc1)C(=O)NCC(=O)N[C@@H](CCCCN)C(=O)N[C@@H](CO)C(=O)N[C@@H](CC(N)=O)C(=O)N[C@H](C(=O)N[C@H](C(=O)N[C@@H](CCC(=O)O)C(=O)N[C@@H](CCC(=O)O)C(=O)N[C@@H](CC(C)C)C(=O)N[C@@H](CCC(N)=O)C(=O)N[C@@H](CO)C(=O)N1CCC[C@H]1C(=O)N[C@@H](Cc1ccccc1)C(=O)N[C@@H](C)C(=O)N[C@@H](CO)C(=O)N[C@@H](CCC(N)=O)C(=O)N[C@@H](CO)C(=O)N[C@@H](CCCNC(=N)N)C(=O)NCC(=O)N[C@@H](Cc1ccc(O)cc1)C(=O)N[C@@H](Cc1ccccc1)C(=O)N[C@@H](CC(C)C)C(=O)N[C@@H](Cc1ccccc1)C(=O)N[C@@H](CCCNC(=N)N)C(=O)N1CCC[C@H]1C(=O)N[C@@H](CCCNC(=N)N)C(=O)N[C@@H](CC(N)=O)C(N)=O)C(C)C)C(C)C [Des-(Ser6,Lys7,Thr8,Gln9)FN38] (H-FLFHYKLGKSNVVEELQSPFASQSRGYFLFRPRN-NH2; N-terminus assumed) | 28 | −72 | – | – | –
2 | CC[C@H](C)[C@H](NC(=O)[C@@H](NC(=O)CNC(=O)CNC(=O)[C@@H]1CCCN1C(=O)[C@@H](NC(=O)[C@H](CCC(N)=O)NC(=O)[C@@H](NC(=O)[C@H](CCC(=O)O)NC(=O)[C@H](CCC(=O)O)NC(=O)[C@H](CC(=O)O)NC(=O)[C@H](CO)NC(=O)[C@H](CC(N)=O)NC(=O)[C@H](CO)NC(=O)[C@H](CCCCN)NC(=O)CNC(=O)[C@H](CC(C)C)NC(=O)[C@H](CCCCN)NC(=O)[C@H](CCC(N)=O)NC(=O)[C@@H](NC(=O)[C@H](CCCCN)NC(=O)[C@H](CO)NC(=O)[C@H](Cc1ccc(O)cc1)NC(=O)[C@H](Cc1c[nH]cn1)NC(=O)[C@H](Cc1ccccc1)NC(=O)[C@H](CC(C)C)NC(=O)[C@@H](N)Cc1ccccc1)[C@@H](C)O)C(C)C)C(C)C)C(C)C)C(=O)N[C@@H](CO)C(=O)N[C@@H](CC(N)=O)C(=O)NCC(N)=O [Compound 165061] (H-FLFHYSKTQKLGKSNSDEEVQVPGGVISNG-NH2; N-terminus assumed) | – | – | 0 | 57 | –
3 | CC(C)C[C@H](NC(=O)[C@H](CCCCN)NC(=O)[C@H](CCC(N)=O)NC(=O)[C@@H](NC(=O)[C@H](CCCCN)NC(=O)[C@H](CO)NC(=O)[C@H](Cc1ccc(O)cc1)NC(=O)[C@H](Cc1c[nH]cn1)NC(=O)[C@H](Cc1ccccc1)NC(=O)[C@H](CC(C)C)NC(=O)[C@@H](N)Cc1ccccc1)[C@@H](C)O)C(=O)NCC(=O)N[C@@H](CCCCN)C(=O)N[C@@H](CO)C(=O)N[C@@H](CC(N)=O)C(=O)N[C@@H](CCC(=O)O)C(=O)N[C@@H](CCC(=O)O)C(=O)N[C@@H](CC(C)C)C(=O)N[C@@H](CCC(N)=O)C(=O)N[C@@H](CO)C(=O)N1CCC[C@H]1C(=O)N[C@@H](CO)C(=O)N[C@@H](CCCNC(=N)N)C(=O)NCC(=O)N[C@@H](Cc1ccc(O)cc1)C(=O)N[C@@H](Cc1ccccc1)C(=O)N[C@@H](CC(C)C)C(=O)N[C@@H](Cc1ccccc1)C(=O)N[C@@H](CCCNC(=N)N)C(=O)N1CCC[C@H]1C(=O)N[C@@H](CCCNC(=N)N)C(=O)N[C@@H](CC(N)=O)C(N)=O (H-FLFHYSKTQKLGKSNEELQSPSRGYFLFRPRN-NH2; N-terminus assumed) | 77 | −79 | – | – | –
4 | CC(C)C[C@H](NC(=O)[C@H](Cc1ccccc1)NC(=O)[C@H](Cc1ccc(O)cc1)NC(=O)CNC(=O)[C@H](CO)NC(=O)[C@H](Cc1ccc(O)cc1)NC(=O)[C@H](Cc1c[nH]cn1)NC(=O)[C@H](Cc1ccccc1)NC(=O)[C@H](CC(C)C)NC(=O)[C@@H](N)Cc1ccccc1)C(=O)N[C@@H](Cc1ccccc1)C(=O)N[C@@H](CCCNC(=N)N)C(=O)N1CCC[C@H]1C(=O)N[C@@H](CCCNC(=N)N)C(=O)N[C@@H](CC(N)=O)C(N)=O [Des-(Lys7-Gly30)FN38 or FN15] (H-FLFHYSGYFLFRPRN-NH2; N-terminus and C-terminus assumed) | 49 | – | – | – | –
5 | CC(C)C[C@H](NC(=O)[C@H](Cc1ccccc1)NC(=O)[C@H](Cc1ccc(O)cc1)NC(=O)CN)C(=O)N[C@@H](Cc1ccccc1)C(=O)N[C@@H](CCCNC(=N)N)C(=O)N1CCC[C@H]1C(=O)N[C@@H](CCCNC(=N)N)C(=O)N[C@@H](CC(N)=O)C(N)=O [Compound 163357, reference compound] (H-GYFLFRPRN-NH2; N-terminus assumed) | – | – | 26 | – | inactive
6 | CC(C)C[C@H](NC(=O)[C@H](CCCCN)NC(=O)[C@H](CCC(N)=O)NC(=O)[C@@H](NC(=O)[C@H](CCCCN)NC(=O)[C@H](CO)NC(=O)[C@H](Cc1ccc(O)cc1)NC(=O)[C@H](Cc1c[nH]cn1)NC(=O)[C@H](Cc1ccccc1)NC(=O)[C@H](CC(C)C)NC(=O)[C@@H](N)Cc1ccccc1)[C@@H](C)O)C(=O)NCC(=O)N[C@@H](CCCCN)C(=O)N[C@@H](CO)C(=O)N[C@@H](CC(N)=O)C(=O)N[C@H](C(=O)N[C@H](C(=O)N[C@@H](CCC(=O)O)C(=O)N[C@@H](CCC(=O)O)C(=O)N[C@@H](CC(C)C)C(=O)N[C@@H](CCC(N)=O)C(=O)N[C@@H](CO)C(=O)N1CCC[C@H]1C(=O)N[C@@H](Cc1ccccc1)C(=O)N[C@@H](C)C(=O)N[C@@H](CO)C(=O)N[C@@H](CCC(N)=O)C(=O)N[C@@H](CO)C(=O)N[C@@H](CCCNC(=N)N)C(=O)NCC(=O)N[C@@H](Cc1ccc(O)cc1)C(=O)N[C@@H](Cc1ccccc1)C(=O)N[C@H](C(=O)N[C@@H](Cc1ccccc1)C(=O)N[C@@H](CCCNC(=N)N)C(=O)N1CCC[C@H]1C(=O)N[C@@H](CCCNC(=N)N)C(=O)N[C@@H](CC(N)=O)C(N)=O)C(C)C)C(C)C)C(C)C [[Val33]FN38] (H-FLFHYSKTQKLGKSNVVEELQSPFASQSRGYFVFRPRN-NH2; N-terminus and C-terminus assumed) | 82 | – | – | – | –

Further lines, with some results ahead:

Row | remaining at 5 h [1, 2] [%] | SMILES | Food Intake Inhibition (NIH/Swiss mice) [%] | FI (60′, 200) (NIH/Swiss mice) [%] | remaining at 5 h ([1]; percent of stable, human brush border membrane extracts, five hours, 37° C., read-out: BBM) [%] | activity in food intake assays (NIH/Swiss mice; doses up to 170 nmol/kg)
7 | 67 | CC(C)C[C@H](NC(=O)[C@H](CCCCN)NC(=O)[C@H](CCC(N)=O)NC(=O)[C@@H](NC(=O)[C@H](CCCCN)NC(=O)[C@H](CO)NC(=O)[C@@H](N)Cc1ccc(O)cc1)[C@@H](C)O)C(=O)NCC(=O)N[C@@H](CCCCN)C(=O)N[C@@H](CO)C(=O)N[C@@H](CC(N)=O)C(=O)N[C@@H](CCC(=O)O)C(=O)N[C@@H](CCC(=O)O)C(=O)N[C@@H](CC(C)C)C(=O)N[C@@H](CCC(N)=O)C(=O)N[C@@H](CO)C(=O)N1CCC[C@H]1C(=O)N[C@@H](CO)C(=O)N[C@@H](CCCNC(=N)N)C(=O)NCC(=O)N[C@@H](Cc1ccc(O)cc1)C(=O)N[C@@H](Cc1ccccc1)C(=O)N[C@@H](CC(C)C)C(=O)N[C@@H](Cc1ccccc1)C(=O)N[C@@H](CCCNC(=N)N)C(=O)N1CCC[C@H]1C(=O)N[C@@H](CCCNC(=N)N)C(=O)N[C@@H](CC(N)=O)C(N)=O (H-YSKTQKLGKSNEELQSPSRGYFLFRPRN-NH2; N-terminus assumed) | −69 | – | – | –
8 | 55 | CC(C)C[C@H](NC(=O)[C@H](CCC(=O)O)NC(=O)[C@H](CCC(=O)O)NC(=O)[C@@H](NC(=O)[C@@H](NC(=O)[C@H](CC(N)=O)NC(=O)[C@H](CO)NC(=O)[C@H](CCCCN)NC(=O)CNC(=O)[C@H](CC(C)C)NC(=O)[C@@H](N)CCCCN)C(C)C)C(C)C)C(=O)N[C@@H](CCC(N)=O)C(=O)N[C@@H](CO)C(=O)N1CCC[C@H]1C(=O)N[C@@H](Cc1ccccc1)C(=O)N[C@@H](C)C(=O)N[C@@H](CO)C(=O)N[C@@H](CCC(N)=O)C(=O)N[C@@H](CO)C(=O)N[C@@H](CCCNC(=N)N)C(=O)NCC(=O)N[C@@H](Cc1ccc(O)cc1)C(=O)N[C@@H](Cc1ccccc1)C(=O)N[C@@H](CC(C)C)C(=O)N[C@@H](Cc1ccccc1)C(=O)N[C@@H](CCCNC(=N)N)C(=O)N1CCC[C@H]1C(=O)N[C@@H](CCCNC(=N)N)C(=O)N[C@@H](CC(N)=O)C(N)=O [Des-(Phe1-Gln9)FN38] (H-KLGKSNVVEELQSPFASQSRGYFLFRPRN-NH2; N-terminus assumed) | −70 | – | – | –
